The record followed here is patent publication US3966773A, “2-Substituted-3,4-epoxycyclopentan-1-ones, and 2-substituted-3,4-epoxycyclopentan-1-ols” (American Cyanamid Company, priority 1975, dated 1976).

Some results are limits rather than exact numbers.

Assay [1] has as its system bronchospasms elicited by acetylcholine. The assay is described as follows: Bronchodilator activity (Konzett assay), acetylcholine as spasmogenic agent. The format is in vivo, guinea pig. The conditions noted are these: Cavia porcellus, read-out: Bronchodilator Activity ED50, spasmogenic agent acetylcholine; three logarithmic cumulative intravenous doses; read-out: Bronchodilator Activity ED50, spasmogenic agent choline. Here is the method:
(§1) Bronchodilator activity was determined in guinea pigs against bronchospasms elicited by intravenous injections of 5-hydroxytryptamine, histamine or acetylcholine by the Konzett procedure. [See J. Lulling, P. Lievens, F. El Sayed and J. Prignot, Arzeimittel-Forschung, 18 995 (1968).]
(§2) In the Table which follows bronchodilater activity for representative compounds of this invention against one or more of the three spasmogenic agents is expressed as an ED50 determined from the results obtained with three logarithemic cumulative intravenous doses.

Assay [2] relates to bronchospasms elicited by 5-hydroxytryptamine. The assay is described as follows: Bronchodilator activity (Konzett assay), 5-hydroxytryptamine as spasmogenic agent. The assay is classed as in vivo, guinea pig. The conditions noted are these: Cavia porcellus; three logarithmic cumulative intravenous doses. How it is done:
as §1, §2

For assay [3], the system named is diastolic blood pressure. The assay can be described thus: Hypotensive activity in anesthetized rats. The assay is classed as in vivo, rat (male Wistar strain). Conditions: Rattus norvegicus; intravenous; dose producing a decrease of about 10 mm. in diastolic blood pressure. Here is the method: This procedure is a modification of the technique described by Pike et al., Prostaglandins, Nobel Symposium 2, Stockholm, June, 1966; p. 165.
Male Wistar strain rats (Royal Hart Farms) averaging approximately 250 grams in weight were fastened to rat boards in a supine position by means of canvas vests and limb ties. The femoral area was infiltrated subcutaneously with lidocaine and the iliac artery and vein were exposed and cannulated. Arterial blood pressure (systolic/diastolic) was recorded using a Statham P23 Db pressure, the animals were anethetized before use with pentobarbital, 30 mg./kg. of body weight intravenously, and also were given hexamethoxium bitartrate, 2 mg./kg. of body weight intravenously. The test compounds were prepared by ultrasonic dispersion in a saline-Tween 80 vehicle. A constant intravenous dose volume of 0.5 ml. was administered and test doses ranged from 0.1 to 10.0 mg./kg. of body weight. Increasing or decreasing doses were selected depending on the dose response obtained. In Table 2B below are set forth the minimal doses required to produce a decrease of about 10 mm. in diastolic blood pressure for typical compounds of the present invention.

Assay [4] deals with bronchospasms elicited by histamine. The assay is described as follows: Bronchodilator activity (Konzett assay), histamine as spasmogenic agent. The assay is classed as in vivo, guinea pig. The conditions noted are these: Cavia porcellus; three logarithmic cumulative intravenous doses. How it is done: as §1, §2

What is called ED50 is the dose that gives a 50% effect, or the effect in half of the subjects. A word on the minimal effective dose: it is the smallest amount tested that counted as effective. A low value points to greater potency. Take `CCCCCC(O)/C=C/[C@H]1CCC(=O)[C@@H]1CCCCCC(CC)C(=O)O` (stereo partly drawn): the ED50 in assay [1] came to 0.000533 mg/kg; in assay [2], 0.000329 mg/kg; in assay [4] it was 0.000145 mg/kg. Moreover, the minimal effective dose in assay [3] was under 2 mg/kg.

Turning to `CCCCC[C@@H](O)/C=C/[C@H]1CCC(=O)[C@@H]1CCCCCC(CC)C(=O)O` (relative stereo) [2-ethyl-9-oxo-15-epi-hydroxy-13-trans-prostenoic acid], the minimal effective dose in assay [3] was 2 to 4 mg/kg. The same measure, in the same setting: under `CCCCC[C@@H](O)/C=C/[C@H]1CCC(=O)[C@@H]1CCCCCC(C)C(=O)O` (relative stereo) [2-methyl-9-oxo-15-epi-hydroxy-13-trans-prostenoic acid] stands 2 mg/kg; under `CCCCC[C@@H](O)/C=C/[C@H]1CCC(=O)[C@@H]1CCCCCC(C(=O)O)c1ccccc1` (relative stereo) [2-phenyl-9-oxo-15-epi-hydroxy-13-trans-prostenoic acid], 2 to 8 mg/kg. Same read-out and setting: under `CCCCC[C@@H](O)/C=C/[C@H]1CCC(=O)[C@@H]1CCCCOCC(=O)O` (relative stereo) [3-oxa-9-oxo-15-epi-hydroxy-13-trans-prostenoic acid] stands 1 to 2 mg/kg.

Compound `CCCCC[C@@H](O)/C=C/[C@H]1CCC(=O)[C@@H]1CCCCSCC(=O)O` (relative stereo) [3-thia-9-oxo-15-epi-hydroxy-13-trans-prostenoic acid] displayed a minimal effective dose in assay [3] of 2 mg/kg. Still for that read-out and setting: the same measure for `CCCCCC(O)/C=C/[C@H]1CCC(=O)[C@]1(C)CCCCCCC(=O)O` (relative stereo) [9-oxo-8β-methyl-15-hydroxy-13-trans-prostenoic acid]: 2 mg/kg.

`CCCCC[C@@H](O)/C=C/[C@H]1CCCC(=O)[C@@H]1CCCCCCC(=O)O` (relative stereo) [9-oxo-10a-homo-15-epi-hydroxy-13-trans-prostenoic acid] displayed a minimal effective dose in assay [3] of 2 mg/kg. On the same count and under the same terms, under `CCCCCC(O)/C=C/[C@H]1CCC(=O)[C@@H]1CCCCCC(F)C(=O)O` (relative stereo) [9-oxo-15-hydroxy-2-fluoro-13-trans-prostenoic acid] stands 8 mg/kg; under `CCCCCC(O)/C=C/[C@H]1CCC(=O)[C@@H]1CCCCCC(C)C(=O)O` (relative stereo) [9-oxo-15-hydroxy-2-methyl-13-trans-prostenoic acid], 2 mg/kg.

For the compound `CCCCCC(O)/C=C/[C@H]1CCC(=O)[C@@H]1CCCCCC(C(=O)O)c1ccccc1` (relative stereo) [9-oxo-15-hydroxy-2-phenyl-13-trans-prostenoic acid], the minimal effective dose in assay [3] came out at 8 mg/kg. The same measure, in the same setting: the same measure for `CCCCCC(O)/C=C/[C@H]1CCC(=O)[C@@H]1CCCCC(C)(C)CC(=O)O` (relative stereo) [9-oxo-15-hydroxy-3,3-dimethyl-13-trans-prostenoic acid]: 8 mg/kg; for `CCCCCC(O)/C=C/[C@H]1CCC(=O)[C@@H]1CCCCOCC(=O)O` (relative stereo) [9-oxo-15-hydroxy-3-oxa-13-trans-prostenoic acid]: under 2 mg/kg; for `CCCCCC(O)/C=C/[C@H]1CCC(=O)[C@@H]1CCCCSCC(=O)O` (relative stereo) [9-oxo-15-hydroxy-3-thia-13-trans-prostenoic acid]: 2 mg/kg. Still for that read-out and setting: the same measure for `CC/C=C\CC(O)/C=C/[C@H]1CCC(=O)[C@@H]1C/C=C\CCCC(=O)O` (relative stereo) [9-oxo-15-hydroxy-5-cis,13-trans,17-cis-prostatrienoic acid]: under 2 mg/kg; for `CCCCCC(O)/C=C/[C@H]1CCC(=O)[C@@H]1CCCCCCCCC(=O)O` (relative stereo) [9-oxo-15-hydroxy-7a,7b-bishomo-13-trans-prostenoic acid]: under 8 mg/kg. On the same count and under the same terms, the same measure for `CCCCCC(O)/C=C/[C@H]1CCCC(=O)[C@@H]1CCCCCCC(=O)O` (relative stereo) [9-oxo-15-hydroxy-10a-homo-13-trans-prostenoic acid]: 2 mg/kg. For `CCCCCC(O)/C=C\[C@H]1CCC(=O)[C@@H]1CCCCCCC(=O)O` (relative stereo) [9-oxo-15-hydroxy-13-cis-prostenoic acid, 15-hydroxy-9-oxo-13-cis-prostenoic acid], the ED50 in assay [1] is 0.00032 mg/kg. In assay [3], this compound yielded a minimal effective dose of 2 to 4 mg/kg. On to `CC/C=C\CC(O)/C=C/[C@H]1CCC(=O)[C@@H]1CCCCCCC(=O)O` (relative stereo) [9-oxo-15-hydroxy-13-trans,17-cis-prostadienoic acid], for which the minimal effective dose in assay [3] was under 2 mg/kg. The same measure, in the same setting: under `CCCCC(C)(C)C(O)/C=C/[C@H]1CCC(=O)[C@@H]1CCCCOCC(=O)O` (relative stereo) [9-oxo-15-hydroxy-16,16-dimethyl-3-oxa-13-trans-prostenoic acid] stands under 2 mg/kg; under `CCCCC(C)(C)C(O)/C=C/[C@H]1CCC(=O)[C@@H]1CCCCSCC(=O)O` (relative stereo) [9-oxo-15-hydroxy-16,16-dimethyl-3-thia-13-trans-prostenoic acid], under 2 mg/kg; under `CCCCC(C)(C)C(O)/C=C/[C@H]1CCC(=O)[C@@H]1CCCCCCC(=O)O` (relative stereo) [9-oxo-15-hydroxy-16,16-dimethyl-13-trans-prostenoic acid], under 2 mg/kg. Same read-out and setting: the same measure for `CCCCC(CC)C(O)/C=C/[C@H]1CCC(=O)[C@@H]1CCCCCCC(=O)O` (relative stereo) [9-oxo-15-hydroxy-16-ethyl-13-trans-prostenoic acid]: under 8 mg/kg. On the same count and under the same terms, the same measure for `CCC/C=C/C(O)CC[C@H]1CCC(=O)[C@@H]1CCCCCCC(=O)O` (relative stereo) [9-oxo-15-hydroxy-16-trans-prostenoic acid]: under 2 mg/kg; for `CCCC(C)(C)CC(O)/C=C/[C@H]1CCC(=O)[C@@H]1CCCCCCC(=O)O` (relative stereo) [9-oxo-15-hydroxy-17,17-dimethyl-13-trans-prostenoic acid]: 2 mg/kg. In assay [3], `CCCCC[C@@H](O)/C=C/[C@H]1CCC(=O)[C@@H]1CCCCOCC(=O)OCC` (relative stereo) [Ethyl 3-oxa-9-oxo-15-epi-hydroxy-13-trans-prostenoate] registered a minimal effective dose of 0.2 mg/kg.

Turning to `CCCCCC(O)/C=C/[C@H]1CCC(=O)[C@@H]1CCCCOCC(=O)OCC` (relative stereo) [Ethyl 9-oxo-15-hydroxy-3-oxa-13-trans-prostenoate], the minimal effective dose in assay [3] was determined as 0.2 mg/kg. On the same count and under the same terms, the same measure for `CCCCCC(O)/C=C/[C@H]1CCCC(=O)[C@@H]1CCCCCCC(=O)OCC` (relative stereo) [Ethyl 9-oxo-15-hydroxy-10a-homo-13-trans-prostenoate]: 2 mg/kg.

In turn, `CCCCCC(O)CC[C@H]1CCC(=O)[C@@H]1CCCCCC(CC)C(=O)O` (stereo partly drawn) [2-ethyl-9-oxo-15-hydroxy-prostanoic acid, 9-oxo-15-hydroxy-2-ethyl-prostanoic acid] returned a minimal effective dose in assay [3] of 0.2 mg/kg. Same read-out and setting: the same measure for `CC/C=C\CC(C)(O)/C=C/[C@H]1CCC(=O)[C@@H]1C/C=C\CCCC(=O)O` (stereo partly drawn) [9-oxo-15-hydroxy-15-methyl-5-cis,13-trans,17-cis-prostatrienoic acid]: under 2 mg/kg. On to `CCCC#CC(O)CC[C@H]1CCC(=O)[C@@H]1CCCCCCC(=O)O` (stereo partly drawn) [9-oxo-15-hydroxy-16-prostynoic acid], for which the ED50 in assay [1] came out at 0.00032 mg/kg. In assay [3], this compound had a minimal effective dose of 2 mg/kg.
